Here are results for two molecules from publication PMC11416114 (Infection and Drug Resistance, 2024).

Values joined by “and” are separate entries in the source; they are usually repeats but may differ in a detail not shown here. Equal values may be shown once. Read-outs that look alike come from different tables or passages of the source.

The conditions of series [1]: critically ill adult patients; for Residual variability (σ) stdev, Final Model Estimate, Mean: log-additive error.
The conditions of series [2]: cited from earlier work.
The test system of series [3] is SARS-CoV-2. The following applies: free exposure, cited from earlier work.
The conditions of series [4]: limit for steady-state Cpeak; cited from earlier work.
The conditions of series [5]: cited from earlier work. The source holds these as a separate data set.
For series [6] the following is noted: cited from earlier work. This is another data set of the same source.
The conditions of series [7]: Chinese patients aged 60 and above; typical patient; cited from earlier work.
For series [8] the following is noted: mild to moderate hepatic impairment; cited from earlier work.
Series [9] in a line: clinical. Particulars: human, in vivo, 300 mg.
The conditions of series [10]: eight CRRT supported critically ill patients; cited from earlier work.
Where [11] appears, read: healthy young adults, NIR/RIT 2250mg/100mg once.

`CC(C)c1nc(CN(C)C(=O)N[C@H](C(=O)N[C@@H](Cc2ccccc2)C[C@H](O)[C@H](Cc2ccccc2)NC(=O)OCc2cncs2)C(C)C)cs1` [RIT, Ritonavir]: in series [1] (bootstrap), the “Residual variability (σ) stdev, Bootstrap Estimate, Median” value was 0.34; the “ω^2CL (inter-individual variability), Bootstrap Estimate, Median” value is on record as 0.53; the “ω^2V (inter-individual variability), Bootstrap Estimate, Median” value is recorded as 1.64. Moreover, in series [1] (bootstrap 1000 samples), the “tvCL, Bootstrap of Final Model Estimate, Median” value is 10.3 L/h; the “tvKa, Bootstrap of Final Model Estimate, Median” value was 1.10 h⁻¹; the “tvV, Bootstrap of Final Model Estimate, Median” value was 82.4 L. For the same molecule, in series [1] (final model), the “ω^2CL (inter-individual variability), Final Model Estimate, Mean” value was 0.57; the “ω^2V (inter-individual variability), Final Model Estimate, Mean” value is 1.27; the “Residual variability (σ) stdev, Final Model Estimate, Mean” value is recorded as 0.34. Also, in series [1] (one-compartment final model), the “tvCL, Final Model Estimate, Mean” value is 10.3 L/h; the “tvKa, Final Model Estimate, Mean” value is 0.64 h⁻¹; the “tvV, Final Model Estimate, Mean” value is recorded as 84.9 L.

Usually EC90 stands for the point of the concentration-response curve where the effect stands at 90%. One may read the CL/F as clearance divided by bioavailability, as obtained after extravascular dosing. The AUC is concentration integrated over time. On to `CC(C)(C)[C@H](NC(=O)C(F)(F)F)C(=O)N1C[C@H]2[C@@H]([C@H]1C(=O)N[C@H](C#N)C[C@@H]1CCNC1=O)C2(C)C` [NIR, Nirmatrelvir], for which, in series [1], the “absorption rate constant (Ka), mean (SD)” value was 0.42 (0.10) h^−1 and 0.42 h^−1; the “apparent clearance (CL/F), mean (SD)” value is 3.6 (0.26) L/h and 3.6 L/h. Moreover, in series [1] (bootstrap), the “Residual variability (σ) stdev, Bootstrap Estimate, Median” value is 0.26; the “dCLdAUCRIT, Bootstrap Estimate, Median” value is listed as −0.44; the “dCLdCrCL, Bootstrap Estimate, Median” value was 0.58; the “ω^2V (inter-individual variability), Bootstrap Estimate, Median” value is reported as 0.60. Moreover, in series [1] (bootstrap 1000 samples), the “tvCL, Bootstrap of Final Model Estimate, Median” value is on record as 3.2 L/h and the “tvKa, Bootstrap of Final Model Estimate, Median” value was 0.61 h⁻¹. For the same molecule, the “Residual variability (σ) stdev, Final Model Estimate, Mean” value in series [1] (final model) is 0.26. In series [1] (one-compartment final model), the “tvCL, Final Model Estimate, Mean” value is recorded as 3.6 L/h and the “tvKa, Final Model Estimate, Mean” value was 0.42 h⁻¹. Further, in [2] (moderate renal impairment group), the “CL/F lower than normal renal function group” value is on record as 47%. In addition, the “CL/F lower than normal renal function group” value in series [2] (severe renal impairment group) is 80%. Further, the “in vitro EC90 (free)” value in series [3] was 0.0905 µg/mL. Moreover, the EC90 in series [3] (read-out: in vitro EC90 (free)) was 181 nM. Also, the “human no observed adverse effect levels (NOAELs)” value in [4] is 79,700 ng/mL. In addition, the protein binding result in series [5] is “approximately 70%”. For the same molecule, in [6] (healthy adults aged 18–60), the CL/F is 8.2 L/h, the Ka is 1.11 h⁻¹ and the V/F is given as 111 L. Besides, in [6] (setting [11]), the exposure (AUC) was 188.2 µg·h/mL, the CL/F was 3.97 L/h and the V/F was 40.06 L. In addition, in [7], the CL/F is on record as 4.16 L/h, the Ka is 0.776 h⁻¹ and the V/F was 39.1 L. Also, the “median plasma concentration and AUC in hepatic impairment” value in [8] is “comparable to those with normal hepatic function”. In addition, the AUC in [9] amounted to 107 µg·h/mL. Besides, in series [10], the valley concentrations was 3325.34 to 15625.46 ng/mL.
